Experimental data reported in publication PMC4820897, “Structural insight in the toppling mechanism of an energy-coupling factor transporter” (Nature Communications, 2016).

Experiments:
ECF–FolT2 [1] = molecular target: T1, ECF–FolT2 (Lactobacillus delbrueckii, UniProt Q1GBI9+Q1GBJ0); assay: crystal structure […] Å; format: binding; conditions: 10 mM MgCl2; one AMP-PNP bound to each of EcfA and EcfA'; ATPase dimer open
T1 construct: gene ecfA1; full ECF complex EcfA-EcfA'-EcfT-FolT2; N-terminal His10-tag and TEV site on EcfA, C-terminal STREPII tag on FolT2; expressed in E. coli MC1061; nucleotide sites on EcfA and EcfA'; with Energy-coupling factor transporter transmembrane protein EcfT; Folate family ECF transporter S component FolT2
T1 sequence (Q1GBI8 entry or part of it): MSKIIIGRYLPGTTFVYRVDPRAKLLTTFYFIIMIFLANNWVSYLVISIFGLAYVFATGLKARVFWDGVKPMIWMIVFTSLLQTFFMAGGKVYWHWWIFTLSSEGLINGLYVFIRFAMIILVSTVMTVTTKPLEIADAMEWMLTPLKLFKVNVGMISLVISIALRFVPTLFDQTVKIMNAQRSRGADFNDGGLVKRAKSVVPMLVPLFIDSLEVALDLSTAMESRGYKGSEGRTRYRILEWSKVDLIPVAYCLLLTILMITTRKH
T1 sequence (Q1GBJ0 whole entry): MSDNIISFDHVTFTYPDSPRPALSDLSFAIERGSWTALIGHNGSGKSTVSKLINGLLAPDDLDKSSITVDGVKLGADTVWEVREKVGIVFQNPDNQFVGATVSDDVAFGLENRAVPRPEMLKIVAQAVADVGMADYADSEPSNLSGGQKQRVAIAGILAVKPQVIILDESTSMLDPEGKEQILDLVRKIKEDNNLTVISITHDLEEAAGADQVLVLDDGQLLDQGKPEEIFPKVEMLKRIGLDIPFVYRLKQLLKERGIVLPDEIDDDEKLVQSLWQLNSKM
T1 sequence (Q1GBI9 whole entry): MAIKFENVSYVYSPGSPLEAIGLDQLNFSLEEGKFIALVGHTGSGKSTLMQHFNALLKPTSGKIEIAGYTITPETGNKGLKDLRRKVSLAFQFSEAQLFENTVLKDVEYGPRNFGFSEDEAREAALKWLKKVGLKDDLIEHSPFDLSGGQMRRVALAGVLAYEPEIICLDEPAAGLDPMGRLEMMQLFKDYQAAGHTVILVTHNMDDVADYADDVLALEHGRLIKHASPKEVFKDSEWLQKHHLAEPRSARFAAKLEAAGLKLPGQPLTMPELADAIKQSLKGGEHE
T1 sequence (Q1G929 entry or part of it, further chain): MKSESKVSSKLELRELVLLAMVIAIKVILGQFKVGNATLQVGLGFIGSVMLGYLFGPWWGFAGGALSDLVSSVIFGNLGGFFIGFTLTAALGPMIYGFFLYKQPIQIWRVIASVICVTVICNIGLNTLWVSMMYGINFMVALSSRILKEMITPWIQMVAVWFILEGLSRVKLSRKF

ECF–FolT2 [2] = molecular target: T1, ECF–FolT2; assay: coupled-enzyme ATPase assay in proteoliposomes; format: biochemical; conditions: 1 mM MgATP, 50 mM KPi pH 7.5, 200 mM NaCl, 30 °C
FolT2 = molecular target: T2, FolT2 (Lactobacillus delbrueckii, UniProt Q1G929); assay: intrinsic fluorescence titration; format: binding; conditions: read-out: dissociation constant
T2 construct: gene Ldb1625; solitary S-component, N-terminal His8-tag, expressed in Lactococcus lactis NZ9000, purified in n-nonyl-beta-D-glucopyranoside
T2 sequence (Q1G929 entry or part of it): as the sequence (Q1G929 entry or part of it, further chain) above

FolT1 [3] = molecular target: T3, FolT1 (Lactobacillus delbrueckii, UniProt Q1G930); assay: intrinsic fluorescence titration; crystal structure […] Å; format: binding; conditions: read-out: dissociation constant
T3 construct: gene Ldb1624; solitary S-component, N-terminal His8-tag, expressed in Lactococcus lactis NZ9000, purified in n-nonyl-beta-D-glucopyranoside
T3 sequence (Q1G930 entry or part of it): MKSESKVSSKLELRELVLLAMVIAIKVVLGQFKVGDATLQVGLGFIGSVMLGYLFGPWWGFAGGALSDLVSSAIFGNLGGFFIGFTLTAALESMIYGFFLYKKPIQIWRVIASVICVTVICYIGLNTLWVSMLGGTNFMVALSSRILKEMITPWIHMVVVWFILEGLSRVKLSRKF

FolT1 [4] = molecular target: T4, FolT1 (Lactobacillus delbrueckii, UniProt Q1G930, Y122N); assay: intrinsic fluorescence titration; format: binding; conditions: read-out: dissociation constant
T4 construct: gene Ldb1624; solitary S-component, N-terminal His8-tag, expressed in Lactococcus lactis NZ9000, purified in n-nonyl-beta-D-glucopyranoside
T4 sequence (Q1G930 entry or part of it Y122N): as the sequence (Q1G930 entry or part of it) above, with Y122N counted along it

ECF–FolT1 = molecular target: T5, ECF–FolT1 (Lactobacillus delbrueckii, UniProt Q1G930); assay: radiolabelled folate uptake in proteoliposomes; format: biochemical; conditions: luminal MgATP; labelled compound
T5 construct: gene Ldb1624; full ECF complex EcfA-EcfA'-EcfT-FolT1; His10-EcfA, FolT1-STREPII; expressed in E. coli MC1061; reconstituted in proteoliposomes; Energy-coupling factor transporter transmembrane protein EcfT
T5 sequence (Q1GBJ0 whole entry): as the sequence (Q1GBJ0 whole entry) above
T5 sequence (Q1G930 entry or part of it): as the sequence (Q1G930 entry or part of it) above
T5 sequence (Q1GBI9 whole entry, further chain): as the sequence (Q1GBI9 whole entry) above
T5 sequence (Q1GBI8 entry or part of it, further chain): as the sequence (Q1GBI8 entry or part of it) above

ECF–FolT2 [5] = molecular target: T6, ECF–FolT2 (Lactobacillus delbrueckii, UniProt Q1G929); assay: radiolabelled folate uptake and efflux in proteoliposomes; format: biochemical; conditions: 5 mM luminal MgATP, 100 nM folate, pH 7.5, 25 °C; labelled compound
T6 construct: gene Ldb1625; His10-EcfA, FolT2-STREPII; expressed in E. coli MC1061; reconstituted in proteoliposomes; Energy-coupling factor transporter transmembrane protein EcfT
T6 sequence (Q1GBI8 entry or part of it): as above
T6 sequence (Q1GBJ0 whole entry, further chain): as the sequence (Q1GBJ0 whole entry) above
T6 sequence (Q1GBI9 whole entry, further chain): as the sequence (Q1GBI9 whole entry) above
T6 sequence (Q1G929 entry or part of it): as the sequence (Q1G929 entry or part of it, further chain) above

`Nc1ncnc2c1ncn2[C@@H]1O[C@H](COP(=O)(O)OP(=O)(O)NP(=O)(O)O)[C@@H](O)[C@H]1O` [AMP–PNP] was tested, and the “crystal structure 3.3 Å” value (ECF–FolT2 [1]) was “EcfA and EcfA′ each bind a molecule of the nucleotide”.
`Nc1ncnc2c1ncn2[C@@H]1O[C@H](COP(=O)(O)OP(=O)(O)OP(=O)(O)O)[C@@H](O)[C@H]1O` [ATP] was tested, and the “coupled-enzyme ATPase assay in proteoliposomes” value (ECF–FolT2 [2]) was “we also measured the ATPase activity of ECF–FolT2 in the proteoliposomes”.
`Nc1nc2ncc(CNc3ccc(C(=O)N[C@@H](CCC(=O)O)C(=O)O)cc3)nc2c(=O)[nH]1` [folate] showed a Kd (FolT2) of 3.1 ± 1.4 nM, a Kd (FolT1 [3]) of 1 ± 0.24 nM and a Kd (FolT1 [4]) of 2.5 ± 1.2 nM. For the same compound, the “radiolabelled folate uptake in proteoliposomes” value (ECF–FolT1) was “Both ECF transporters mediated association of radiolabelled folate with the proteoliposomes” and the “radiolabelled folate uptake and efflux in proteoliposomes” value (ECF–FolT2 [5]) was “ECF transporters indeed translocate their substrates across the membrane”.
